From patent US4590264A, “Lipoglycosides and process of extracting same” (Wofor AG, priority 1983, dated 1986)
“Also recorded” adds a separate entry of the source.

What was measured:
[1] = tested on: tumor cells derived from human carcinoma of the nasopharynx (KB cells); experiment: KB cell assay: cytotoxicity, cell count (alive, dead) after 48 h incubation; assay type: cell-based; settings: for Cell count after incubation, dead / Cell count after incubation, alive: cell count before incubation = 100, Table 3; for Cell count after incubation, dead: control 0; for Cell count after incubation, alive: control 200
Procedure: The plant is subjected to extraction in various solvents having different polarities (i.e. dielectric constants) at room temperature for a period of from 1 to 10 days. By room temperature, it is meant from about 20° C. to about 25° C. The extract-containing solvents are each tested for their biological activity. As a measure of biological activity, the cytotoxicity of the extracts against tumor cells derived from human carcinoma of the nasopharynx (KB cells) is measured. Those extracts which show the capability of killing KB cells are fractionated to yield the compounds of the present invention.
A sample of cells was taken from a stock supply furnished by a well known commercial laboratory. The primary culture was Minimal Essential Medium (MEM), Flo Laboratories, 10% fetal calf serum. Trypsinization was conducted with 0.2% trypsin in isotonic NaCl. The cells were counted with 0.1% Tripan Blue. The cells were subcultured in a 5 to 1 split in microtiter plates at 2×10^5 cells per well. The volume of culture placed in each well was 1 ml. The cells were counted at three locations before the addition of the extract to yield an average cell count.
Each of the extracts to be tested was added to the cells at a specific concentration as an ethanolic solution. The cells were incubated at 37° C. for 48 hours. Thereafter, the cells were again counted at three locations to provide an average cell count.
As a control, a cell sample was incubated for the same period in culture medium and without the addition of any plant extract.
Each of the extracts obtained above was tested for its effect on KB cells. The cell culture assay protocol described above was used.

Solubility in solvents = assay type: physicochemical; settings: solvents as named in the value

Structure (SMILES) | Cell count after incubation, dead ([1]; 10 μg/ml) | Cell count after incubation, alive ([1]; 10 μg/ml) | Cell count after incubation, dead ([1]; 100 μg/ml) | Cell count after incubation, alive ([1]; 100 μg/ml) | activity against KB cells / antitumor activity (in words) [1] | Solubility (in words) (Solubility in solvents)
CCC1CCCCCCCCCCCCCCCCCCC(=O)OC[C@H]2O[C@@H](O1)[C@H](O)[C@@H](OC(C)=O)[C@@H]2O (stereo partly shown) [Compound II] | 0.5 | 104.5 | 0 | 0 | active; also recorded: possess antitumor properties | soluble in CH2 Cl2 and benzene but insoluble in methanol and ether; also recorded: Insoluble in methanol, ethyl ether
CCC1CCCCCCCCCCCCCCCCCCC(=O)OC[C@H]2O[C@@H](O1)[C@H](OC(C)=O)[C@@H](O)[C@@H]2O (stereo partly shown) [Compound I] | 0 | 15 | 0 | 0 | active; also recorded: possess antitumor properties | Soluble in CHCl3, methanol; also recorded: Sparingly soluble in acetyl ethyl ether and acetone; also recorded: Insoluble in ethyl ether and petroleum ether
CCC(O)CCCCCCCCCCCCCCCCCCC(=O)OC (stereo not shown) [Example 5, 20-hydroxydocosanoic acid methyl ester] |  |  |  |  |  | soluble in n-hexane, benzene and chloroform but insoluble in methanol and acetone
